Data reported in the NIST ThermoML archive (doi:10.1021/je060271a).
Values joined by “and” are separate entries in the source; they are usually repeats but may differ in a detail not shown here. Identical values can stand only once.

Conditions: Liquid, Vibrating tube method

CCCCC(=O)OCC(COC(=O)CCCC)(COC(=O)CCCC)COC(=O)CCCC [pentaerythritol tetrapentanoate]
Conditions | mass density
323.15 K, 34266 kPa | 1016.9 kg/m3
323.15 K, 34294 kPa | 1016.8 kg/m3
323.15 K, 34311 kPa | 1016.8 kg/m3
323.15 K, 34334 kPa | 1016.9 kg/m3
323.15 K, 34359 kPa | 1017 kg/m3
323.15 K, 34383 kPa | 1016.9 kg/m3
323.15 K, 34414 kPa | 1017 kg/m3
323.15 K, 34441 kPa | 1016.9 kg/m3
323.15 K, 34467 kPa | 1016.9 kg/m3
323.15 K, 34492 kPa | 1017 kg/m3
323.15 K, 34493 kPa | 1017.1 kg/m3
323.15 K, 34495 kPa | 1017 kg/m3
323.15 K, 34498 kPa | 1017 kg/m3
323.15 K, 34500 kPa | 1017.1 kg/m3
323.15 K, 34502 kPa | 1017.1 kg/m3
323.15 K, 34504 kPa | 1017.1 kg/m3
323.15 K, 34507 kPa | 1017.1 kg/m3
323.15 K, 34510 kPa | 1017 kg/m3
343.14 K, 4331.4 kPa | 981.8 kg/m3
343.14 K, 4369.7 kPa | 981.9 kg/m3
343.14 K, 4403.1 kPa | 981.9 kg/m3
343.14 K, 4438.3 kPa | 981.9 kg/m3
343.14 K, 4480.3 kPa | 982 kg/m3
343.14 K, 4516.3 kPa | 982 kg/m3
343.14 K, 4553 kPa | 982.1 kg/m3
343.14 K, 4648.1 kPa | 982.1 kg/m3
343.14 K, 4649.8 kPa | 982.1 kg/m3
343.14 K, 4651.7 kPa | 982.2 kg/m3
343.14 K, 4656 kPa | 982.2 kg/m3
343.14 K, 4659.5 kPa | 982 kg/m3
343.14 K, 4659.7 kPa | 982.3 kg/m3 and 982.2 kg/m3
343.14 K, 4661.6 kPa | 982.1 kg/m3
343.14 K, 4661.9 kPa | 982 kg/m3
343.14 K, 4662.1 kPa | 982.1 kg/m3 and 982 kg/m3
343.14 K, 4662.3 kPa | 982.1 kg/m3
343.14 K, 4662.4 kPa | 982.2 kg/m3
343.14 K, 4662.6 kPa | 982.1 kg/m3
343.14 K, 4662.8 kPa | 982.1 kg/m3
343.14 K, 4663.1 kPa | 982.1 kg/m3
343.14 K, 4671.9 kPa | 982.1 kg/m3
343.14 K, 4688.2 kPa | 982 kg/m3
343.14 K, 4712.1 kPa | 982.2 kg/m3
343.14 K, 4732.7 kPa | 982.3 kg/m3
343.14 K, 4774.6 kPa | 982.2 kg/m3
343.14 K, 4799.7 kPa | 982.2 kg/m3
343.14 K, 4821 kPa | 982.3 kg/m3
343.14 K, 4842.3 kPa | 982.4 kg/m3
343.14 K, 4868.4 kPa | 982.4 kg/m3
343.14 K, 4886.2 kPa | 982.3 kg/m3
343.14 K, 4912.7 kPa | 982.3 kg/m3
343.14 K, 21139 kPa | 994 kg/m3
343.14 K, 21166 kPa | 994 kg/m3
343.14 K, 21194 kPa | 994.3 kg/m3
343.14 K, 21221 kPa | 994 kg/m3
343.14 K, 21398 kPa | 994.3 kg/m3
343.14 K, 21431 kPa | 994.3 kg/m3
343.14 K, 21460 kPa | 994.4 kg/m3
343.14 K, 21488 kPa | 994.4 kg/m3
343.14 K, 21522 kPa | 994.5 kg/m3
343.14 K, 21550 kPa | 994.3 kg/m3
343.14 K, 21578 kPa | 994.5 kg/m3
343.14 K, 21611 kPa | 994.5 kg/m3
343.14 K, 21640 kPa | 994.4 kg/m3
343.14 K, 21669 kPa | 994.4 kg/m3
343.14 K, 21702 kPa | 994.5 kg/m3
343.14 K, 21732 kPa | 994.4 kg/m3
343.14 K, 21760 kPa | 994.6 kg/m3
343.14 K, 21795 kPa | 994.6 kg/m3
343.14 K, 21825 kPa | 994.6 kg/m3
343.14 K, 21856 kPa | 994.6 kg/m3
343.14 K, 21885 kPa | 994.7 kg/m3
343.14 K, 21920 kPa | 994.7 kg/m3
343.14 K, 21949 kPa | 994.6 kg/m3
343.14 K, 21979 kPa | 994.6 kg/m3
343.14 K, 22008 kPa | 994.7 kg/m3
343.14 K, 22044 kPa | 994.8 kg/m3
343.14 K, 22073 kPa | 994.7 kg/m3
343.14 K, 22109 kPa | 994.9 kg/m3
343.14 K, 22139 kPa | 994.8 kg/m3
343.14 K, 22169 kPa | 994.8 kg/m3
